What all share (format): functional
Holding throughout (conditions): read-out: DIZ

Test [1] deals with Staphylococcus aureus. The test can be described thus: Antibacterial activity against Staphylococcus aureus at 100 ug/ml after 24 hr by disk diffusion method. (In agar diffusion tests the substance spreads into inoculated agar from a disc or well.)
In test [2] the test system is Staphylococcus aureus. The experiment in a line: Antibacterial activity against Staphylococcus aureus at 50 ug/ml after 24 hr by disk diffusion method.
The test system of test [3] is Bacillus subtilis. The experiment in a line: Antibacterial activity against Bacillus subtilis at 100 ug/ml after 24 hr by disk diffusion method.
For test [4], the system named is Bacillus subtilis. The experiment in a line: Antibacterial activity against Bacillus subtilis at 200 ug/ml after 24 hr by disk diffusion method.
Test [5] concerns Bacillus subtilis. The experiment in a line: Antibacterial activity against Bacillus subtilis at 50 ug/ml after 24 hr by disk diffusion method.
In test [6] the test system is Pseudomonas aeruginosa. The experiment in a line: Antibacterial activity against Pseudomonas aeruginosa at 100 ug/ml after 24 hr by disk diffusion method.
Test [7] deals with Pseudomonas aeruginosa. The test can be described thus: Antibacterial activity against Pseudomonas aeruginosa at 200 ug/ml after 24 hr by disk diffusion method.
For test [8], the system named is Pseudomonas aeruginosa. The experiment in a line: Antibacterial activity against Pseudomonas aeruginosa at 50 ug/ml after 24 hr by disk diffusion method.
The test system of test [9] is Escherichia coli. The test can be described thus: Antibacterial activity against Escherichia coli at 200 ug/ml after 24 hr by disk diffusion method.
Test [10] deals with Escherichia coli. The test can be described thus: Antibacterial activity against Escherichia coli at 50 ug/ml after 24 hr by disk diffusion method.
Test [11] has as its system Escherichia coli. The test can be described thus: Antibacterial activity against Escherichia coli at 100 ug/ml after 24 hr by disk diffusion method.
Test [12] has as its system Candida albicans. The experiment in a line: Antifungal activity against Candida albicans at 200 ug/ml after 48 hr by disk diffusion method.
Test [13] has as its system Aspergillus niger. The test can be described thus: Antifungal activity against Aspergillus niger at 50 ug/ml after 48 hr by disk diffusion method.
The subject of test [14] is Candida albicans. The test can be described thus: Antifungal activity against Candida albicans at 100 ug/ml after 48 hr by disk diffusion method.
The subject of test [15] is Candida albicans. The test can be described thus: Antifungal activity against Candida albicans at 50 ug/ml after 48 hr by disk diffusion method.
Test [16] concerns Staphylococcus aureus. The test can be described thus: Antibacterial activity against Staphylococcus aureus at 200 ug/ml after 24 hr by disk diffusion method.
The test system of test [17] is Aspergillus niger. The experiment in a line: Antifungal activity against Aspergillus niger at 200 ug/ml after 48 hr by disk diffusion method.
The test system of test [18] is Aspergillus niger. The test can be described thus: Antifungal activity against Aspergillus niger at 100 ug/ml after 48 hr by disk diffusion method.

Take `CN(C)CN1C(=O)NC(c2ccccc2)(c2ccccc2)C1=O`: the zone of inhibition at 100 µg/mL in [1] came to 9 mm; in [3] it was 10 mm; in [6] it was 10 mm; in test [11], 13 mm; in test [14] it was 18 mm; in [18], 18 mm. In addition, the zone of inhibition at 50 µg/mL in [2] amounted to 4 mm; in test [5], 5 mm; in [8], 6 mm; in test [10], 5 mm; in [13], 16 mm; in [15] it was 16 mm. Further, the zone of inhibition at 200 µg/mL in [4] was 22 mm; in test [7], 17 mm; in test [9] it was 22 mm; in test [12], 19 mm; in [16] it was 12 mm; in test [17], 18 mm.
On to `CN1CCN(CN2C(=O)N(c3ccccc3)C(=O)C2(c2ccccc2)c2ccccc2)CC1`, for which the zone of inhibition at 100 µg/mL in [1] came out at 10 mm; in [3], 5 mm; in [6], 6 mm; in [11], 13 mm; in test [14] it was 13 mm; in test [18] it was 12 mm. Moreover, the zone of inhibition at 50 µg/mL is 6 mm in [2]; 4 mm in test [5]; 4 mm in [8]; 6 mm in [10]; 11 mm in test [13]; 12 mm in test [15]. Besides, the zone of inhibition at 200 µg/mL in test [4] turned out to be 14 mm; in [7], 10 mm; in [9] it was 16 mm; in test [12], 13 mm; in [16], 18 mm; in [17], 12 mm.
For `CCN(CC)CN1C(=O)N(c2ccccc2)C(=O)C1(c1ccccc1)c1ccccc1`, the zone of inhibition at 100 µg/mL in [1] turned out to be 10 mm; in [3] it was 9 mm; in [6] it was 9 mm; in test [11], 13 mm; in [14], 10 mm; in test [18], 10 mm. In addition, the zone of inhibition at 50 µg/mL is 5 mm in test [2]; 3 mm in test [5]; 5 mm in test [8]; 3 mm in test [10]; 8 mm in [13]; 9 mm in [15]. The zone of inhibition at 200 µg/mL stood at 13 mm in [4]; 14 mm in test [7]; 18 mm in test [9]; 11 mm in [12]; 14 mm in test [16]; 12 mm in test [17].
Take `O=C1N(c2ccccc2)C(=O)C(c2ccccc2)(c2ccccc2)N1Cn1cnc2ccccc21`: the zone of inhibition at 100 µg/mL in test [1] turned out to be 10 mm; in test [3], 13 mm; in test [6], 8 mm; in test [11], 12 mm; in test [14], 24 mm; in test [18], 19 mm. Further, the zone of inhibition at 50 µg/mL in test [2] came out at 5 mm; in [5], 5 mm; in [8], 4 mm; in test [10], 6 mm; in [13], 16 mm; in test [15], 16 mm. Moreover, the zone of inhibition at 200 µg/mL in test [4] was determined as 18 mm; in test [7], 12 mm; in test [9] it was 18 mm; in test [12], 32 mm; in test [16], 12 mm; in [17] it was 32 mm.

These data come from ChEMBL document CHEMBL3044687, “Microwave-assisted synthesis of some novel and potent antibacterial and antifungal compounds with biological screening” (2012).
